Laboratory results: paper PMC7206119, “RIP1 inhibition blocks inflammatory diseases but not tumor growth or metastases” (Cell Death and Differentiation, 2019)

Assays:
Assay in all cases: biochemical
Design in all cases: DiscoverX kinase panel, active-site competition binding (KINOMEscan type), percent of control at one concentration
Conditions in all cases: competition binding, percent of control
MAP3K15 = MAP3K15 (Homo sapiens, UniProt Q6ZN16)
CLK2 = CLK2 (Homo sapiens, UniProt P49760)
EIF2AK1 = EIF2AK1 (Homo sapiens, UniProt Q9BQI3)
RAF1 = RAF1 (Homo sapiens, UniProt P04049)
EGFR(G719C) = EGFR(G719C) (Homo sapiens, UniProt P00533, G719C)
QSK = target: T1, QSK (Homo sapiens, UniProt Q9Y2K2)
T1 construct: gene SIK3

LIMK1 = LIMK1 (Homo sapiens, UniProt P53667)
KIT(V559D,T670I) = KIT(V559D,T670I) (Homo sapiens, UniProt P10721, T670I/V559D)
PFTAIRE2 = target: T2, PFTAIRE2 (Homo sapiens, UniProt Q96Q40)
T2 construct: gene CDK15

PIK3CA(Q546K) = PIK3CA(Q546K) (Homo sapiens, UniProt P42336, Q546K)
ROCK1 = ROCK1 (Homo sapiens, UniProt Q13464)
PRP4 = target: T3, PRP4 (Homo sapiens, UniProt Q13523)
T3 construct: gene PRPF4B

YANK3 = target: T4, YANK3 (Homo sapiens, UniProt Q86UX6)
T4 construct: gene STK32C

ERBB4 = ERBB4 (Homo sapiens, UniProt Q15303)
PIK3CA(C420R) = PIK3CA(C420R) (Homo sapiens, UniProt P42336, C420R)
[1] = target: T5, RSK1(Kin.Dom.1-N-terminal) (Homo sapiens, UniProt Q15418)
T5 construct: gene RPS6KA1; Kin.Dom.1-N-terminal

PRKD1 = PRKD1 (Homo sapiens, UniProt Q15139)
MRCKB = target: T6, MRCKB (Homo sapiens, UniProt Q9Y5S2)
T6 construct: gene CDC42BPB

PRKCH = PRKCH (Homo sapiens, UniProt P24723)
TRKB = target: T7, TRKB (Homo sapiens, UniProt Q16620)
T7 construct: gene NTRK2

PKAC-beta = target: T8, PKAC-beta (Homo sapiens, UniProt P22694)
T8 construct: gene PRKACB

Sequence of CLK2 (P49760 whole entry): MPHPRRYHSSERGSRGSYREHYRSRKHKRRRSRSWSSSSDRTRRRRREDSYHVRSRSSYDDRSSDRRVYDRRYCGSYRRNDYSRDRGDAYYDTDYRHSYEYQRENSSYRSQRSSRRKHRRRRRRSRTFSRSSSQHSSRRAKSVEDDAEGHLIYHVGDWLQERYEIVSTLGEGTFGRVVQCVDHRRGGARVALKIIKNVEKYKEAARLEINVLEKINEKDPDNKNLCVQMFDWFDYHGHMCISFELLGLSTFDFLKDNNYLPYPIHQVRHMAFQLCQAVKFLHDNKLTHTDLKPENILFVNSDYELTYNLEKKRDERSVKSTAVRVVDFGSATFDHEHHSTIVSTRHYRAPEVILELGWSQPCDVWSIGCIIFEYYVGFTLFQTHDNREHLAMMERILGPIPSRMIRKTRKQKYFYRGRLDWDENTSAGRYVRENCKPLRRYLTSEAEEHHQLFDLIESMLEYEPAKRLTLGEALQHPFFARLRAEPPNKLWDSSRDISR
Sequence of PRKD1 (Q15139 whole entry): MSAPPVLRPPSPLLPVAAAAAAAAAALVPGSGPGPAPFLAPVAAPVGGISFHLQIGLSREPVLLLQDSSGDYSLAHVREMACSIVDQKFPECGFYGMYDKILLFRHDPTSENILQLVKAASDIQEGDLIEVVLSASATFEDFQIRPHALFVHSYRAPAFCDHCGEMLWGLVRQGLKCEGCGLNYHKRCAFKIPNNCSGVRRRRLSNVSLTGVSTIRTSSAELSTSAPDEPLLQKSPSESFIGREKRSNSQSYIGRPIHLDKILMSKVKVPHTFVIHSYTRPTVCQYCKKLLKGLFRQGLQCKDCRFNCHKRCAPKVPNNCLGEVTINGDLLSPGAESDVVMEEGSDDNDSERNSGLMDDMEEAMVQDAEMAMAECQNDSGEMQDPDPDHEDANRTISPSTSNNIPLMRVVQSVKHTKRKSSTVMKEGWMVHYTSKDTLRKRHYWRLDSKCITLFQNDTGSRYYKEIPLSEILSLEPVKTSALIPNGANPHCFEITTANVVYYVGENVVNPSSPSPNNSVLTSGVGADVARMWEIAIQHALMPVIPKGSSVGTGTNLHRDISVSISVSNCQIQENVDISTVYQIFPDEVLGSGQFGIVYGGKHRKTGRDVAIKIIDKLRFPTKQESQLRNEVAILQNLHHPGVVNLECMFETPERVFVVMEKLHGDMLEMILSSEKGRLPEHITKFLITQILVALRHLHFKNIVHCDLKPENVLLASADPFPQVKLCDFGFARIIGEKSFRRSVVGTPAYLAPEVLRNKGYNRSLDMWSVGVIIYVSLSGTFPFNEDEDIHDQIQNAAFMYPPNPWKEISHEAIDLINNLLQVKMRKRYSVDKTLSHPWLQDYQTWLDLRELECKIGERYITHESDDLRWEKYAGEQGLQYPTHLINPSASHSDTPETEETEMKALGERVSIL
T4 sequence (Q86UX6 whole entry): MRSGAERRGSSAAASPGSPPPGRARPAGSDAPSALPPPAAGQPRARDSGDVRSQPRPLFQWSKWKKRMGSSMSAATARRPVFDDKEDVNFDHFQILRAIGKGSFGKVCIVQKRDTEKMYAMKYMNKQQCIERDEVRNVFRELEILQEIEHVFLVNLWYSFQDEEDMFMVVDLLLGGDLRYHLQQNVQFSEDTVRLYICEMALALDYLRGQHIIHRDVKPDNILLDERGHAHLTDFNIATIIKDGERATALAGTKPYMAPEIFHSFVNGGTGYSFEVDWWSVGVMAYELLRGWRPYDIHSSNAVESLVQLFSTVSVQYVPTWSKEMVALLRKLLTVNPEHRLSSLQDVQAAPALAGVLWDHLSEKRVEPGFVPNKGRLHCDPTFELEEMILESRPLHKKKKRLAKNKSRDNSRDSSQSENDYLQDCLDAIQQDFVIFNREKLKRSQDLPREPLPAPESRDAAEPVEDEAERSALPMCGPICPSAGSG
Sequence of KIT(V559D,T670I) (P10721 whole entry V559D/T670I): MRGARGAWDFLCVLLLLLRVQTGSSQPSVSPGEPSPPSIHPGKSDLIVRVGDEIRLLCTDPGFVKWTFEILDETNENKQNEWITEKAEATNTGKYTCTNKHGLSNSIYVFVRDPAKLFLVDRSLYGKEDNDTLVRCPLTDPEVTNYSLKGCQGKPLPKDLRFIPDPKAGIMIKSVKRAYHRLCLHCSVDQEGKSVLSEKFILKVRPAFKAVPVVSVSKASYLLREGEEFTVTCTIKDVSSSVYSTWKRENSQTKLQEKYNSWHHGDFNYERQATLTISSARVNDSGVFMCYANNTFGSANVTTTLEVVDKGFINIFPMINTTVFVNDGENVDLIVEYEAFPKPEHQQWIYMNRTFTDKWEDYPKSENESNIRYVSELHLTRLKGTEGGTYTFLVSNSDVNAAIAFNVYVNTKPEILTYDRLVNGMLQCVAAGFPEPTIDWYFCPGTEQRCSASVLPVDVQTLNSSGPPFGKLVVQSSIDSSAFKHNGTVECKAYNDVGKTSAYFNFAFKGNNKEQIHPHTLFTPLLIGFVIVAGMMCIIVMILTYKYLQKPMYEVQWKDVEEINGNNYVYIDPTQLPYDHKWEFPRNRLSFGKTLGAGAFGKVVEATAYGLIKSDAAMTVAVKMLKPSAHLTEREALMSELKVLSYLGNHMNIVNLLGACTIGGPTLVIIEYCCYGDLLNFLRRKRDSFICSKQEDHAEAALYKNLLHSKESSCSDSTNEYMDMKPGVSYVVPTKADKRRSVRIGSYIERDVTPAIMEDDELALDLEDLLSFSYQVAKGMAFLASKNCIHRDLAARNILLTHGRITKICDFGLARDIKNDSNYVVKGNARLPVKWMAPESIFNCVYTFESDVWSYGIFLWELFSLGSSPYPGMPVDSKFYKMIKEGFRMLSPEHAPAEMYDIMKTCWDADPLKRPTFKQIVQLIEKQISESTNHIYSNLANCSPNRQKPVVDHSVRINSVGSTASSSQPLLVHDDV
Sequence of PIK3CA(C420R) (P42336 whole entry C420R): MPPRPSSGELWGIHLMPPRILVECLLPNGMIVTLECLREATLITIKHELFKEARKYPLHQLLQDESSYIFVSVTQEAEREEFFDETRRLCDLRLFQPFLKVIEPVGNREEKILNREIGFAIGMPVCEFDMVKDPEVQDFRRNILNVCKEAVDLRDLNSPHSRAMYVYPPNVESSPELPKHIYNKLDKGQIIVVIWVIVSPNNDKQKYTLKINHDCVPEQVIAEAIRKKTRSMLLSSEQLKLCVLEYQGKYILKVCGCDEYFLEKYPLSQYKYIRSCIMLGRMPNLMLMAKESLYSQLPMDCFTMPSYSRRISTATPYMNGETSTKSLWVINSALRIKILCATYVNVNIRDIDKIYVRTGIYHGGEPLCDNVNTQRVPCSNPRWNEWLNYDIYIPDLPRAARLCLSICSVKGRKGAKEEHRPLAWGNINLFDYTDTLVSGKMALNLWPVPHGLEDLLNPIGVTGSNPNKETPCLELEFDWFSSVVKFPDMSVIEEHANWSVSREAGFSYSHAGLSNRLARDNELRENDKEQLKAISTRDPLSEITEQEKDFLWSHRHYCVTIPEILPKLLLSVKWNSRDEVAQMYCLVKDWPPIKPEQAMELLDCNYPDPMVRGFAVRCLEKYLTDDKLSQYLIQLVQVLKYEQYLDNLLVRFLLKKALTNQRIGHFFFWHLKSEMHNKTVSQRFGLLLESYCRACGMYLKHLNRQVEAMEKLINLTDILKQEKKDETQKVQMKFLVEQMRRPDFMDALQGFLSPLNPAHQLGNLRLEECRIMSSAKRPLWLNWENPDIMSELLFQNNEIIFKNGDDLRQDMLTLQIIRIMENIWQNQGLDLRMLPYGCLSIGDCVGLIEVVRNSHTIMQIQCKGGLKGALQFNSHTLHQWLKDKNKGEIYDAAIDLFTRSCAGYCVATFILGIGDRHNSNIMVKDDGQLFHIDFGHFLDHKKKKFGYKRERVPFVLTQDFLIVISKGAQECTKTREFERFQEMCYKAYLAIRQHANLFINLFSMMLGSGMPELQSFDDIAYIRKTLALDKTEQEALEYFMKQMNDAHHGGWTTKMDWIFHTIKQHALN
T5 sequence (Q15418 whole entry): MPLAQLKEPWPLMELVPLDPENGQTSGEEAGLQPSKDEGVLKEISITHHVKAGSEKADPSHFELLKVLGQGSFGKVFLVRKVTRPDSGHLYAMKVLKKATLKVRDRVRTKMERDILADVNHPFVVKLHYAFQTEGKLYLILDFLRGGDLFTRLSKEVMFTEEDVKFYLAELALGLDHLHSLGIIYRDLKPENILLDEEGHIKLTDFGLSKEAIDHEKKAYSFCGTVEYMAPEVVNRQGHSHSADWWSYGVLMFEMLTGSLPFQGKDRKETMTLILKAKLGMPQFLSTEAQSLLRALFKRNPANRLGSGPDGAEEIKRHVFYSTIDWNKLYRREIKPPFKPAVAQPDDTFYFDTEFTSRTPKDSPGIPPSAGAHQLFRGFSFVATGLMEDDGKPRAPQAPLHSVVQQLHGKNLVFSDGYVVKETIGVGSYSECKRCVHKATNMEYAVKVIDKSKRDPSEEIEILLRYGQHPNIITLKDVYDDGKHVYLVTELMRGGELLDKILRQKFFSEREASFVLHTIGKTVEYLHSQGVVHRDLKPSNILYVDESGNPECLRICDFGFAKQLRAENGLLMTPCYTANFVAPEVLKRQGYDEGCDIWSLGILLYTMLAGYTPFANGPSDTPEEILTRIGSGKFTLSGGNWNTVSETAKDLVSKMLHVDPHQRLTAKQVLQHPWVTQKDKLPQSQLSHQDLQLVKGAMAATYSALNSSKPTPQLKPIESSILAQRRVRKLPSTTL
Sequence of PIK3CA(Q546K) (P42336 whole entry Q546K): as the sequence (P42336 whole entry C420R) above, with R420C, Q546K counted along it

COc1cc2c(cn1)N(C)C(=O)[C@@H](NC(=O)c1nc3n(n1)[C@H](c1ccccc1)CC3)CC2 [GNE684, (S)-N-((S)-7-methoxy-1-methyl-2-oxo-2,3,4,5-tetrahydro-1H-pyrido[3,4-b]azepin-3-yl)-5-phenyl-6,7-dihydro-5H-pyrrolo[1,2-b][1,2,4]triazole-2-carboxamide] gave a remaining binding at 10 µM (MAP3K15) of 94%, a remaining binding at 10 µM (CLK2) of 74% and a remaining binding at 10 µM (EIF2AK1) of 100%. For the same compound, the remaining binding at 10 µM (RAF1) was 77%, the remaining binding at 10 µM (EGFR(G719C)) was 87% and the remaining binding at 10 µM (QSK) was 97%. It also gave a remaining binding at 10 µM (LIMK1) of 96%, a remaining binding at 10 µM (KIT(V559D,T670I)) of 100% and a remaining binding at 10 µM (PFTAIRE2) of 100%. The remaining binding at 10 µM (PIK3CA(Q546K)) was 49%, the remaining binding at 10 µM (ROCK1) was 100% and the remaining binding at 10 µM (PRP4) was 84%. For the same compound, the remaining binding at 10 µM (YANK3) was 93%, the remaining binding at 10 µM (ERBB4) was 85% and the remaining binding at 10 µM (PIK3CA(C420R)) was 100%. For the same compound, the remaining binding at 10 µM [1] was 98%, the remaining binding at 10 µM (PRKD1) was 100% and the remaining binding at 10 µM (MRCKB) was 100%. The remaining binding at 10 µM (PRKCH) was 89%, the remaining binding at 10 µM (TRKB) was 83% and the remaining binding at 10 µM (PKAC-beta) was 72%.
